Experimental data published in patent publication US20210059927A1, “COSMETIC COMPOSITION COMPRISING DENDROBIUM CANDIDUM FLOWER EXTRACT” (LG HOUSEHOLD & HEALTH CARE LTD., priority 2017, published 2021).

Key:
B-16 mouse melanoma cell = test: Inhibitory effect of melanin production at cellular level; format: cell-based; conditions: positive control 100 ppm, 3 days, relative to negative control; n=4
Method: In order to confirm the brightening effect through the inhibition of melanin production of each extract prepared in Preparation Examples 1 to 9, the samples obtained in Preparation Examples 1 to 9 were added to a culture medium of mouse melanoma cells (B-16 mouse melanoma cell) to measure the total amount of melanin (Lotan R. et al., Cancer Res. 40:3345-3350, 1980). Prior to measuring the total amount of melanin, brightening evaluation was performed at non-toxic concentrations by first evaluating the toxicity of mouse melanoma cells. […]
Thereafter, the cells were trypsin-treated, detached from the culture vessel, and centrifuged, and melanin was extracted. The detached cells were added with 1 mL of sodium hydroxide solution (1N concentration), boiled for 10 minutes to dissolve the melanin, and the absorbance was measured at 405 nm using a spectrophotometer to measure the amount of melanin produced.
The amount of melanin was measured by the absorbance of the unit cell count (1×10^6 cells), and the melanin production inhibition rate (%) was calculated as the total amount of melanin relative to the negative control group, and the results are shown in Table 2 below.

RAW264.7 cell line = test: Inhibitory effect of nitric oxide (NO) production, GRIESS method, LPS-stimulated; format: cell-based, mouse; conditions: positive control 20 ppm, LPS 1 ppm, 24 hours, relative to LPS-only group; n=4
Method: In order to confirm the anti-inflammatory effect and skin trouble improvement effect of each extract prepared in Preparation Examples 1 to 9, NO production inhibitory effect was measured by the GRIESS method using RAW264.7 cell line (ATCC number: CRL-2278).
Specifically, RAW264.7 cells, which are macrophages of mice, were subcultured several times, and cultured for 24 hours after being placed in a 24-well plate such that 3×10^5 cells were placed in one well. After exchanging with a cell medium containing the sample at a final concentration of 0.1%, an untreated medium was used as a negative group and for a positive control group, 20 ppm of L-NG-monomethylarginine (L-NMMA) was used, which is a NO-production inhibitor. 1 ppm of lipopolysaccharide was treated as a stimulus source and cultured for 24 hours. The supernatant was transferred to a 96-well plate by 100 μL, and the GRIESS solution was added by 100 μL to react at room temperature for 10 minutes, and the NO inhibitory effect was determined by measuring the absorbance at 540 nm.
The NO production inhibitory rate (%) was calculated as a relative ratio of the amount of reduced NO compared to the LPS-only treatment group, and the results are shown in Table 3 below.

Aquaporin 3 = test: Moisturizing gene expression by qRT-PCR in HaCaT: AQP3; format: cell-based, human; conditions: mRNA, positive control 10 ng/ml, negative control = 1.00, n=4
Method: In order to confirm the skin moisturizing effect of each extract prepared in Preparation Examples 1 to 9, gene expression related to moisturizing was measured using the cells cultured as below.
Human keratinocytes (HaCaT) were in a 6-hole cell culture plate 2×10^5 each, and then cultured using Dulbecco's Modified Eagle's medium (DMEM, Gibco, Co.) including fetal bovine serum (FBS) and antibiotics for 24 hours.
After culturing the cells, it was replaced with DMEM, High Glucose, no Glutamine, no calcium (Gibco, USA), and then the samples obtained in Preparation Examples 1 to 9 were treated at a concentration of 0.1% for 24 hours. […]
2.5 μg of RNA was quantified and reverse transcription was performed using cDNA synthesis kit (PhileKorea, Korea). […] Quantitative real time PCR (qRT-). […]
The experimental results obtained by qRT-PCT were shown by calculating with the ΔΔCT method (Livak K J, Schmittgen T D: Analysis of relative gene expression data using real-time quantitative PCR and the 2(-Delta Delta C(T)) Method, Methods, 25, 402-408(2001)) based on housekeeping gene and glyceraldehyde-3-phosphate dehydrogenase (GAPDH). To compare effects, moisturizing gene expression was measured in the same manner for a negative control group without treating samples and a positive control group treated with EGF 10 ng/ml and Ca^2+3 mM, respectively. […]

[1] = test system: type 1 collagen in human-derived fibroblasts; test: Synthesis promotion effect of type 1 collagen in human-derived fibroblasts (PICP EIA kit); format: cell-based; conditions: positive control 10 ng/ml, relative to negative control; n=4
Method: In order to confirm the wrinkle improvement effect through promoting the synthesis of type 1 collagen of each extract prepared in Preparation Examples 1 to 9, collagen synthesis rate was measured by adding the samples obtained in Preparation Examples 1 to 9 to the culture solution of human-derived fibroblasts. The synthesis of collagen was quantified using a PICP EIA kit (Procollagen Type I C-Peptide Enzyme ImmunoAssay KIT). After adding the sample to a culture medium of fibroblasts (DMEM medium) at a final concentration of 0.1% and culturing for 48 hours, cultures were taken and the degree of collagen synthesis of type 1 collagen at each concentration was measured at 450 nm using a spectrophotometer with PICP EIA kit.
For comparison of the effects, the degree of collagen synthesis was measured in the same manner with respect to a culture medium (negative control group) of untreated fibroblasts and the sample (positive control) added with TGF-β to a final concentration of 10 ng/mL.
Collagen synthesis rate (%) was calculated as the ratio of the collagen production amount relative to the negative control, and the results are shown in Table 1 below.

OC[C@H]1O[C@@H](Oc2ccc(O)cc2)[C@H](O)[C@@H](O)[C@@H]1O [Albutin]
Melanin production inhibition rate (%) (B-16 mouse melanoma cell): 33.13%

CNC(=N)NCCC[C@H](N)C(=O)O [L-NMMA, L-NG-monomethylarginine]
NO production inhibitory rate (%) (RAW264.7 cell line): 51.85%

EGF: Positive control for moisturizing gene expression, 10 ng/ml
Aquaporin 3 (fold) (Aquaporin 3): 3.27 fold

TGF-β
Collagen synthesis rate (%) [1]: 15.21%
